Experiments:
Human neurokinin (NK1) = biological target: T1, Human neurokinin (NK1) (Homo sapiens, UniProt P25103); test: Radioligand binding, human neurokinin NK1 membranes, filtration, [125I]-Substance P; conditions: compound at 10 μM, [125I]-Substance P
T1 construct: purchased Perkin Elmer Biosignal
Outline: (§1)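 Percent inhibition of radioligand binding measured on recombinant human membranes: NK1 with [125I]-Substance P, KOP with [3H]-Diprenorphine. Incubation 1 h at room temperature, then harvest onto 0.3% PEI-soaked filters, cold Tris-HCl pH 7.4 washes and scintillation counting; non-specific binding from reference ligand wells.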

Human opioid (ORL1) = biological target: T2, Human opioid (ORL1) (Homo sapiens, UniProt P41146); test: Radioligand binding, human opioid ORL1 membranes, FlashPlate, [125I]-Nociceptin; conditions: compound at 10 μM, [125I]-Nociceptin
T2 construct: purchased Perkin Elmer Biosignal
Outline: (§2)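 Cloned human receptor membranes were coated onto FlashPlate wells and incubated with radioligand and compound (added from a 0.5 mM DMSO daughter plate) for 1 hour at room temperature in the dark. Scintillation counting gave percent inhibition, with DMSO defining total and reference ligand defining non-specific binding.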

Human μ-opioid (MOP) = biological target: T3, Human μ-opioid (MOP) (Homo sapiens, UniProt P35372); test: Radioligand binding, human μ-opioid (MOP) membranes, FlashPlate, [3H]-Naloxone; conditions: compound at 10 μM, [3H]-Naloxone
T3 construct: purchased Perkin Elmer Biosignal
Outline: as §2

[1] = biological target: T4, Human neuropeptide Y (NPY-Y1) (Homo sapiens, UniProt P25929); test: Radioligand binding, human neuropeptide Y NPY-Y1 membranes, FlashPlate, [125I]-PYY; conditions: compound at 10 μM, [125I]-PYY
T4 construct: purchased Perkin Elmer Biosignal
T4 sequence (P25929 1-384): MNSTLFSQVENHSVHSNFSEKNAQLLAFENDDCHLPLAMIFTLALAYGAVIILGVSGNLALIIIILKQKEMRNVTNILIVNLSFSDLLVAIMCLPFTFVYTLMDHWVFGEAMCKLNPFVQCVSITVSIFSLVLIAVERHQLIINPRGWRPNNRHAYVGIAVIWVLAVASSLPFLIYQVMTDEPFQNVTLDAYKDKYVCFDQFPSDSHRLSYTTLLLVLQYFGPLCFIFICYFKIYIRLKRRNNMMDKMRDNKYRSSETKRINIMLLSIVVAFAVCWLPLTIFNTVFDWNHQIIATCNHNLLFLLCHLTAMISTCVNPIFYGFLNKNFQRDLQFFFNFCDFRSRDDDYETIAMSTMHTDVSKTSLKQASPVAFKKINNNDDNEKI
Outline: as §2

[2] = biological target: T5, Human melanin-concentrating hormone (MCH1) (Homo sapiens, UniProt Q99705); test: Radioligand binding, human melanin-concentrating hormone MCH1 membranes, FlashPlate, [125I]-S36057; conditions: compound at 10 μM; for A6: inhibition of radioligand binding, human melanin-concentrating hormone (MCH1): [125I]-S36057
T5 construct: purchased Perkin Elmer Biosignal
Outline: as §2

Human δ-opioid (DOP) = biological target: T6, Human δ-opioid (DOP) (Homo sapiens, UniProt P41143); test: Radioligand binding, human δ-opioid (DOP) membranes, FlashPlate, [3H]-Bremazocine; conditions: compound at 10 μM, [3H]-Bremazocine
T6 construct: purchased Perkin Elmer Biosignal
Outline: as §2

Mouse urotensin (mUR2) = biological target: T7, Mouse urotensin (mUR2) (Mus musculus, UniProt Q8VIH9); test: Radioligand binding, mouse urotensin mUR2 membranes, FlashPlate, [125I]-Urotensin II; conditions: compound at 10 μM, [125I]-Urotensin II
T7 construct: purchased Perkin Elmer Biosignal
T7 sequence (Q8VIH9 1-385): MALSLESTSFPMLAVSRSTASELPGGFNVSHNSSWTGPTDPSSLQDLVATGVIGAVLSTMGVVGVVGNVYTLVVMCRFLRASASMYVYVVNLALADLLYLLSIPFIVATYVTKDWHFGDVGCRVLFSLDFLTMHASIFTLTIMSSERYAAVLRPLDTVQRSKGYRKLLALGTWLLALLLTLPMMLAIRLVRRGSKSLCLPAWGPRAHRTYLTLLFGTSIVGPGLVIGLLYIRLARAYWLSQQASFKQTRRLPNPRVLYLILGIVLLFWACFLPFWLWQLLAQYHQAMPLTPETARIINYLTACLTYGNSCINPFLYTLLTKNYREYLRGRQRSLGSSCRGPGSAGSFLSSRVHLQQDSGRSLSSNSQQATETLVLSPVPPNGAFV
Outline: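 Cloned mouse urotensin (mUR2) receptor membranes from Perkin Elmer Biosignal were immobilized in FlashPlate microplates using a proprietary coating. Each well got 19.5 μl buffer, then 0.5 μl of DMSO, reference ligand, or compound. Adding 5 μl of [125I]-Urotensin II, diluted to 5× final concentration in binding buffer, started binding. Plates were sealed with TopSeal-A and incubated 1 hour at room temperature in the dark. Wells were counted for 30 seconds each on a TopCount after a 60-second delay, and percentage inhibition was calculated.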

Human κ-Opioid (KOP) = biological target: T8, Human κ-Opioid (KOP) (Homo sapiens, UniProt P41145); test: Radioligand binding, human κ-opioid (KOP) membranes, filtration, [3H]-Diprenorphine; conditions: compound at 10 μM, [3H]-Diprenorphine
T8 construct: purchased Perkin Elmer Biosignal
Outline: as §1

Human Melanocortin (MC4) = biological target: T9, Human Melanocortin (MC4) (Homo sapiens, UniProt P32245); test: Radioligand binding, human melanocortin MC4 membranes, FlashPlate, [125I]-NDP-αMSH; conditions: compound at 10 μM, [125I]-NDP-αMSH
T9 construct: purchased Perkin Elmer Biosignal
Outline: as §2

Human Melanocortin (MC3) = biological target: T10, Human Melanocortin (MC3) (Homo sapiens, UniProt P41968); test: Radioligand binding, human melanocortin MC3 membranes, FlashPlate, [125I]-NDP-αMSH; conditions: compound at 10 μM, [125I]-NDP-αMSH
T10 construct: purchased Perkin Elmer Biosignal
Outline: as §2

Human melanocortin (MC5) = biological target: T11, Human melanocortin (MC5) (Homo sapiens, UniProt P33032); test: Radioligand binding, human melanocortin MC5 membranes, FlashPlate, [125I]-NDP-αMSH; conditions: compound at 10 μM, [125I]-NDP-αMSH
T11 construct: purchased Perkin Elmer Biosignal
Outline: as §2

T11 sequence (P33032 whole entry): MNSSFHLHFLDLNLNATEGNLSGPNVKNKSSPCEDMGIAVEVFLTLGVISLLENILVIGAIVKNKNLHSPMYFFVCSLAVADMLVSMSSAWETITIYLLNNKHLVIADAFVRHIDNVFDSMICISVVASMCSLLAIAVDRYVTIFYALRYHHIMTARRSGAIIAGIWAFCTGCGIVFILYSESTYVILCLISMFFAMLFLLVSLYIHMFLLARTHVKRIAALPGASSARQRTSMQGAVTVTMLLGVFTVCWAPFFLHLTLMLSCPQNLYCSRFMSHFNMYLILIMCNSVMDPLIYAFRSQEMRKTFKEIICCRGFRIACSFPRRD
T6 sequence (P41143 whole entry): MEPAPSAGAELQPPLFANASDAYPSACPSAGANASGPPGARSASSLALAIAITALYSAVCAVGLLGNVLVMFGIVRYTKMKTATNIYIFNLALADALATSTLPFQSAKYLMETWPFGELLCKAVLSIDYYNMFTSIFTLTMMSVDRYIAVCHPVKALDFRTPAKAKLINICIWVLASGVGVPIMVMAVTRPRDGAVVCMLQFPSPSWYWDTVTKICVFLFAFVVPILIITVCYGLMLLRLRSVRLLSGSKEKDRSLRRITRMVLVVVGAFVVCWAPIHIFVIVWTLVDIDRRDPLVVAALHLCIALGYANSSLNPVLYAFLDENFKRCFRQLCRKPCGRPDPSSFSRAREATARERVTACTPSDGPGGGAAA
T3 sequence (P35372 whole entry): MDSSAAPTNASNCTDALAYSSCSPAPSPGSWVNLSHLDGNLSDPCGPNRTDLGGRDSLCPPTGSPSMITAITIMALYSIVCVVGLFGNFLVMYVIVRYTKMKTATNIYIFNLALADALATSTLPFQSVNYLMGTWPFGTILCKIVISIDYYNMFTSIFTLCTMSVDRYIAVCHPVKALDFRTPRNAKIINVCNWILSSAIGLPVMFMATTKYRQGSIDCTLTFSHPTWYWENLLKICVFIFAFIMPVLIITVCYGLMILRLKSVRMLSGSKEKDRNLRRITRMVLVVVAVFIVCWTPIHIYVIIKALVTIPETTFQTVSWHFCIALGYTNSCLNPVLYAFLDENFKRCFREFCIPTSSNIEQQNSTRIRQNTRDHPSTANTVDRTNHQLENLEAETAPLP
T5 sequence (Q99705 whole entry): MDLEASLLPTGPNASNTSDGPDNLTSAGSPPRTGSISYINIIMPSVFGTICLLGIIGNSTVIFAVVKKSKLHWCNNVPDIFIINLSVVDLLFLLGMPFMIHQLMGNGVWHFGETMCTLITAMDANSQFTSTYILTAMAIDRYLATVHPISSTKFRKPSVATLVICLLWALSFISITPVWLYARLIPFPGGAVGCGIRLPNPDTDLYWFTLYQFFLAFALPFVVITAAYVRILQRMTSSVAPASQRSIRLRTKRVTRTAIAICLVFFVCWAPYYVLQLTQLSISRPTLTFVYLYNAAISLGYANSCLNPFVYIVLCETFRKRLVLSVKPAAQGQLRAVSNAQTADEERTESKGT
T8 sequence (P41145 whole entry): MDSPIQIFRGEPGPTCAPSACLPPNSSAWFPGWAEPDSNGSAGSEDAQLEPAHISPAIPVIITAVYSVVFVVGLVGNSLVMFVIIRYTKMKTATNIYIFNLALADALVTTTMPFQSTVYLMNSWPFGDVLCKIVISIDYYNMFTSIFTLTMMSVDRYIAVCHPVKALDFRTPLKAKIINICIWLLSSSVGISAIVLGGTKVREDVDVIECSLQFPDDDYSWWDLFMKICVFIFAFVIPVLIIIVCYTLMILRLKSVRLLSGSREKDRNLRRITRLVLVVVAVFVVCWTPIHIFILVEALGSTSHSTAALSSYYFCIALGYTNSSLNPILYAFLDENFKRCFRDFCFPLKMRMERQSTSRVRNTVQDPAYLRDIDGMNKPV
T9 sequence (P32245 whole entry): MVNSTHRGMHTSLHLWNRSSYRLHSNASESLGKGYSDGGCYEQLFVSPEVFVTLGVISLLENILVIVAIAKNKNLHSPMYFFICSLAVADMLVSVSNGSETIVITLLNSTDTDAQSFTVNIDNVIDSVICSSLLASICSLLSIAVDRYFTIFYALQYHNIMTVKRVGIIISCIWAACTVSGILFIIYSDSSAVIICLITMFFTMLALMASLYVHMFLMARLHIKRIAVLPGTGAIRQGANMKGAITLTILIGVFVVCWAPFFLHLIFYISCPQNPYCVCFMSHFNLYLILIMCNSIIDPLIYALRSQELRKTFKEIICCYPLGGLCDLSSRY
T10 sequence (P41968 whole entry): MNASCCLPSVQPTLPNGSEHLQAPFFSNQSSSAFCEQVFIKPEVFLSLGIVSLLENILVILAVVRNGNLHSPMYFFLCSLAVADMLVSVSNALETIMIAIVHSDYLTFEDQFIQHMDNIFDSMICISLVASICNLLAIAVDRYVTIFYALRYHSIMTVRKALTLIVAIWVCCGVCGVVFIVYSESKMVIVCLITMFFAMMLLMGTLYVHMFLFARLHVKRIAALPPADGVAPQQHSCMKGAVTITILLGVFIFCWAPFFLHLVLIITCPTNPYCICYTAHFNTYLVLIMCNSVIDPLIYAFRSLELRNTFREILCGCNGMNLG
T1 sequence (P25103 whole entry): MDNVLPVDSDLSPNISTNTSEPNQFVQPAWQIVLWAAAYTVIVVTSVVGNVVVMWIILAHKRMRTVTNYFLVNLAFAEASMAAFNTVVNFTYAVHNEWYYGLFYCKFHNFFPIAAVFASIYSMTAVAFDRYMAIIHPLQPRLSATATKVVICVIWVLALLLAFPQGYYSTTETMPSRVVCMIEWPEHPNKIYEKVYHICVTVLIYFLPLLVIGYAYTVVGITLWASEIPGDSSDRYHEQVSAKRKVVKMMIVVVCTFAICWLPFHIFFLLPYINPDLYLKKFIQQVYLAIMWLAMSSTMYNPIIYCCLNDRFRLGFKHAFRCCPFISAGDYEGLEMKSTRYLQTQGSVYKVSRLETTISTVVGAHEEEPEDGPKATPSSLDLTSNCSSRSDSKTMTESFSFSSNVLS
T2 sequence (P41146 whole entry): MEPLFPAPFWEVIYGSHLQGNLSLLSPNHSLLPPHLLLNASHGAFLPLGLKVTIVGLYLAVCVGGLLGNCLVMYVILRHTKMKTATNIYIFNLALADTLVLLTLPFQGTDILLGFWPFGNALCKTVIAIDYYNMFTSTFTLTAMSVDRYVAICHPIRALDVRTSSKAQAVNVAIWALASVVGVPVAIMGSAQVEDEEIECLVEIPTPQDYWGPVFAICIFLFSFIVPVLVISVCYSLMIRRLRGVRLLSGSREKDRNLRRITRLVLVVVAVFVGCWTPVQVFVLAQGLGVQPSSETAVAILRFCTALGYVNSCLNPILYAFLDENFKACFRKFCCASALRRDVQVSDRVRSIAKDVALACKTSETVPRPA

Row | SMILES | A10: inhibition of radioligand binding, human opioid (ORL1) (Human opioid (ORL1)) | A7: inhibition of radioligand binding, human μ-opioid (MOP) (Human μ-opioid (MOP)) | A9: inhibition of radioligand binding, human neuropeptide Y (NPY-Y1) [1] | A6: inhibition of radioligand binding, human melanin-concentrating hormone (MCH1) [2] | A1: inhibition of radioligand binding, human δ-opioid (DOP) (Human δ-opioid (DOP)) | A11: inhibition of radioligand binding, mouse urotensin (mUR2) (Mouse urotensin (mUR2)) | A2: inhibition of radioligand binding, human κ-opioid (KOP) (Human κ-Opioid (KOP)) | A4: inhibition of radioligand binding, human melanocortin (MC4) (Human Melanocortin (MC4)) | A3: inhibition of radioligand binding, human melanocortin (MC3) (Human Melanocortin (MC3)) | A5: inhibition of radioligand binding, human melanocortin (MC5) (Human melanocortin (MC5)) | A8: inhibition of radioligand binding, human neurokinin (NK1) (Human neurokinin (NK1)) | other results
1 | COCC1OC(OCCc2ccccc2)C(NC(=O)CNC(=N)N)C(OCc2ccc(-c3ccccc3)cc2)C1O (stereo not shown) [compound 549] | − (“−” indicates less than 50% inhibition at 10 μM) | − (“−” indicates less than 50% inhibition at 10 μM) | − (“−” indicates less than 50% inhibition at 10 μM) | − (“−” indicates less than 50% inhibition at 10 μM) | − (“−” indicates less than 50% inhibition at 10 μM) | − (“−” indicates less than 50% inhibition at 10 μM) | − (“−” indicates less than 50% inhibition at 10 μM) | − (“−” indicates less than 50% inhibition at 10 μM) | − (“−” indicates less than 50% inhibition at 10 μM) | + (“+” indicates greater than 50% inhibition at 10 μM) |  | A8: inhibition of radioligand binding, human neurokinin (NK1) (Human neurokinin (NK1); 10 µM): − (“−” indicates less than 50% inhibition at 10 μM)
2 | CSC1OC(COCc2ccc(Cl)cc2)C(O)C(OCc2ccc3ccccc3c2)C1NC(=O)CN (stereo not shown) [compound 306] | − (“−” indicates less than 50% inhibition at 10 μM) | − (“−” indicates less than 50% inhibition at 10 μM) | − (“−” indicates less than 50% inhibition at 10 μM) | − (“−” indicates less than 50% inhibition at 10 μM) | − (“−” indicates less than 50% inhibition at 10 μM) | − (“−” indicates less than 50% inhibition at 10 μM) | − (“−” indicates less than 50% inhibition at 10 μM) | − (“−” indicates less than 50% inhibition at 10 μM) | − (“−” indicates less than 50% inhibition at 10 μM) | − (“−” indicates less than 50% inhibition at 10 μM) | + (“+” indicates greater than 50% inhibition at 10 μM) | 
3 | COCC1OC(OCc2ccc(Cl)cc2)C(NC(=O)CNC(=N)N)C(OCc2ccc3ccccc3c2)C1O (stereo not shown) [compound 209] |  |  |  |  |  |  |  |  |  |  |  | A8: inhibition of radioligand binding (Human neurokinin (NK1); filtration): + (“+” indicates greater than 50% inhibition at 10 μM); A10: inhibition of radioligand binding (Human opioid (ORL1); FlashPlate): − (“−” indicates less than 50% inhibition at 10 μM); A7: inhibition of radioligand binding (Human μ-opioid (MOP); FlashPlate): − (“−” indicates less than 50% inhibition at 10 μM); A9: inhibition of radioligand binding ([1]; FlashPlate): − (“−” indicates less than 50% inhibition at 10 μM); A6: inhibition of radioligand binding ([2]; [125I]-S36057, FlashPlate): − (“−” indicates less than 50% inhibition at 10 μM); A1: inhibition of radioligand binding (Human δ-opioid (DOP); FlashPlate): − (“−” indicates less than 50% inhibition at 10 μM); A11: inhibition of radioligand binding (Mouse urotensin (mUR2); FlashPlate): − (“−” indicates less than 50% inhibition at 10 μM); A2: inhibition of radioligand binding (Human κ-Opioid (KOP); filtration): − (“−” indicates less than 50% inhibition at 10 μM); A4: inhibition of radioligand binding (Human Melanocortin (MC4); FlashPlate): + (“+” indicates greater than 50% inhibition at 10 μM); A3: inhibition of radioligand binding (Human Melanocortin (MC3); FlashPlate): + (“+” indicates greater than 50% inhibition at 10 μM); A5: inhibition of radioligand binding (Human melanocortin (MC5); FlashPlate): + (“+” indicates greater than 50% inhibition at 10 μM)
4 | COC1C(O)C(COCc2ccc3ccccc3c2)OC(OCc2ccc(Cl)cc2)C1NC(=O)C1CCCN1 (stereo not shown) [compound 347] | − (“−” indicates less than 50% inhibition at 10 μM) | − (“−” indicates less than 50% inhibition at 10 μM) | − (“−” indicates less than 50% inhibition at 10 μM) | − (“−” indicates less than 50% inhibition at 10 μM) | − (“−” indicates less than 50% inhibition at 10 μM) | − (“−” indicates less than 50% inhibition at 10 μM) | − (“−” indicates less than 50% inhibition at 10 μM) | − (“−” indicates less than 50% inhibition at 10 μM) | − (“−” indicates less than 50% inhibition at 10 μM) | − (“−” indicates less than 50% inhibition at 10 μM) | + (“+” indicates greater than 50% inhibition at 10 μM) | 
5 | CSC1O[C@H](COCc2ccc(-c3ccccc3)cc2)[C@@H](O)[C@@H](OCc2ccc(-c3ccccc3)cc2)[C@H]1NC(=O)CCCN (stereo partly shown) [compound 294] | − (“−” indicates less than 50% inhibition at 10 μM) | − (“−” indicates less than 50% inhibition at 10 μM) | − (“−” indicates less than 50% inhibition at 10 μM) | − (“−” indicates less than 50% inhibition at 10 μM) | − (“−” indicates less than 50% inhibition at 10 μM) | − (“−” indicates less than 50% inhibition at 10 μM) | − (“−” indicates less than 50% inhibition at 10 μM) | − (“−” indicates less than 50% inhibition at 10 μM) | − (“−” indicates less than 50% inhibition at 10 μM) | + (“+” indicates greater than 50% inhibition at 10 μM) | + (“+” indicates greater than 50% inhibition at 10 μM) | 

From patent publication US20080009418A1, “Selective Inhibitors” (Alchemia LTD., priority 2004, published 2008)
